Tested on: PANC-1 complex spheroid growth, percent test/control
Assay: Anticancer human tumor PANC-1 cell line growth inhibition [Asc];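 note: spheroids exposed to agents for 7 days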;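 for viability, T/C: percent viability relative to DMSO vehicle wells taken as 100%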
Conditions: for IC50: curve of first compound; for viability, T/C: stronger effect = lower value
Summary of the method: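 Concentration series start at each agent's clinical Cmax, or at 10 microM when none is established, and drop in half-log steps; agents are applied alone or together to complex spheroids built with HUVEC and hMSC.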

[1] = second compound 0.0316 µM, first compound 0.0316 µM
[2] = second compound 0.0316 µM, first compound 0.1 µM
[3] = second compound 0.1 µM, first compound 0.0316 µM
[4] = second compound 0.1 µM, first compound 0.1 µM
[5] = second compound 0.316 µM, first compound 0.0316 µM
[6] = second compound 0.316 µM, first compound 0.1 µM
[7] = second compound 1 µM, first compound 0.0316 µM
[8] = second compound 1 µM, first compound 0.1 µM

## C=C(F)C(=O)N1CCN(c2nc(OCC3CCCN3C)nc3c2CCN(c2cccc4cccc(Cl)c24)C3)CC1CC#N (centres undefined) + CNC(C)C(=O)NC1CN(S(=O)(=O)c2cccc(S(=O)(=O)N3CCC4CCC(C(=O)NC(c5ccccc5)c5ccccc5)N4C(=O)C(NC(=O)C(C)NC)C3)c2)CCC2CCC(C(=O)NC(c3ccccc3)c3ccccc3)N2C1=O
Second compound 0.00316 µM
  IC50: 5.52 µM
Second compound 0.01 µM
  IC50: 5.29 µM
Second compound 0.0316 µM
  IC50: 5.31 µM
Second compound 0.1 µM
  IC50: 5.4 µM
Second compound 0.316 µM
  IC50: 2.64 µM
Second compound 1 µM
  IC50: 4.05 µM
Second compound 0.00316 µM, first compound 0.0316 µM
  viability, T/C: 99.5%
Second compound 0.00316 µM, first compound 0.1 µM
  viability, T/C: 99.1%
Second compound 0.00316 µM, first compound 0.316 µM
  viability, T/C: 101%
Second compound 0.00316 µM, first compound 1 µM
  viability, T/C: 92.4%
Second compound 0.00316 µM, first compound 3.16 µM
  viability, T/C: 91.6%
Second compound 0.00316 µM, first compound 10 µM
  viability, T/C: 5.56%
Second compound 0.01 µM, first compound 0.0316 µM
  viability, T/C: 95.6%
Second compound 0.01 µM, first compound 0.1 µM
  viability, T/C: 92.4%
Second compound 0.01 µM, first compound 0.316 µM
  viability, T/C: 92.4%
Second compound 0.01 µM, first compound 1 µM
  viability, T/C: 100%
Second compound 0.01 µM, first compound 3.16 µM
  viability, T/C: 85.1%
Second compound 0.01 µM, first compound 10 µM
  viability, T/C: 6.24%
[1]
  viability, T/C: 88.1%
[2]
  viability, T/C: 86.8%
Second compound 0.0316 µM, first compound 0.316 µM
  viability, T/C: 107%
Second compound 0.0316 µM, first compound 1 µM
  viability, T/C: 91.8%
Second compound 0.0316 µM, first compound 3.16 µM
  viability, T/C: 86.8%
Second compound 0.0316 µM, first compound 10 µM
  viability, T/C: 5.07%
[3]
  viability, T/C: 90.5%
[4]
  viability, T/C: 102%
Second compound 0.1 µM, first compound 0.316 µM
  viability, T/C: 90.3%
Second compound 0.1 µM, first compound 1 µM
  viability, T/C: 99.3%
Second compound 0.1 µM, first compound 3.16 µM
  viability, T/C: 87.6%
Second compound 0.1 µM, first compound 10 µM
  viability, T/C: 6.55%
[5]
  viability, T/C: 89.2%
[6]
  viability, T/C: 92.4%
Second compound 0.316 µM, first compound 0.316 µM
  viability, T/C: 96.2%
Second compound 0.316 µM, first compound 1 µM
  viability, T/C: 95.1%
Second compound 0.316 µM, first compound 3.16 µM
  viability, T/C: 41.9%
Second compound 0.316 µM, first compound 10 µM
  viability, T/C: 4.83%
[7]
  viability, T/C: 84.8%
[8]
  viability, T/C: 91.3%
Second compound 1 µM, first compound 0.316 µM
  viability, T/C: 93.4%
Second compound 1 µM, first compound 1 µM
  viability, T/C: 95.4%
Second compound 1 µM, first compound 3.16 µM
  viability, T/C: 63.1%
Second compound 1 µM, first compound 10 µM
  viability, T/C: 2.3%

## Cn1ncnc1[C@H]1c2n[nH]c(=O)c3cc(F)cc(c23)N[C@@H]1c1ccc(F)cc1 + Cc1c(S(C)(=O)=O)c(-c2cc(F)cc(N3CCN(c4ccc(NS(=O)(=O)c5ccc(NC(CCN6CCC(C(=O)OCCCP(=O)(O)O)CC6)CSc6ccccc6)c(S(=O)(=O)C(F)(F)F)c5)cc4)CC3)c2)c(-c2ccc(Cl)cc2)n1C(C)C
Second compound 0.0316 µM
  IC50: > 0.1 µM
Second compound 0.1 µM
  IC50: > 0.1 µM
Second compound 0.316 µM
  IC50: > 0.1 µM
Second compound 1 µM
  IC50: > 0.1 µM
Second compound 3.16 µM
  IC50: > 0.1 µM
Second compound 10 µM
  IC50: > 0.1 µM
Second compound 0.0316 µM, first compound 0.000316 µM
  viability, T/C: 101%
Second compound 0.0316 µM, first compound 0.001 µM
  viability, T/C: 88.4%
Second compound 0.0316 µM, first compound 0.00316 µM
  viability, T/C: 98.5%
Second compound 0.0316 µM, first compound 0.01 µM
  viability, T/C: 102%
[1]
  viability, T/C: 110%
[2]
  viability, T/C: 101%
Second compound 0.1 µM, first compound 0.000316 µM
  viability, T/C: 96.7%
Second compound 0.1 µM, first compound 0.001 µM
  viability, T/C: 103%
Second compound 0.1 µM, first compound 0.00316 µM
  viability, T/C: 93.5%
Second compound 0.1 µM, first compound 0.01 µM
  viability, T/C: 108%
[3]
  viability, T/C: 108%
[4]
  viability, T/C: 103%
Second compound 0.316 µM, first compound 0.000316 µM
  viability, T/C: 109%
Second compound 0.316 µM, first compound 0.001 µM
  viability, T/C: 108%
Second compound 0.316 µM, first compound 0.00316 µM
  viability, T/C: 106%
Second compound 0.316 µM, first compound 0.01 µM
  viability, T/C: 106%
[5]
  viability, T/C: 104%
[6]
  viability, T/C: 110%
Second compound 1 µM, first compound 0.000316 µM
  viability, T/C: 105%
Second compound 1 µM, first compound 0.001 µM
  viability, T/C: 99.3%
Second compound 1 µM, first compound 0.00316 µM
  viability, T/C: 105%
Second compound 1 µM, first compound 0.01 µM
  viability, T/C: 106%
[7]
  viability, T/C: 103%
[8]
  viability, T/C: 109%
Second compound 3.16 µM, first compound 0.000316 µM
  viability, T/C: 105%
Second compound 3.16 µM, first compound 0.001 µM
  viability, T/C: 102%
Second compound 3.16 µM, first compound 0.00316 µM
  viability, T/C: 107%
Second compound 3.16 µM, first compound 0.01 µM
  viability, T/C: 114%
Second compound 3.16 µM, first compound 0.0316 µM
  viability, T/C: 112%
Second compound 3.16 µM, first compound 0.1 µM
  viability, T/C: 93.5%
Second compound 10 µM, first compound 0.000316 µM
  viability, T/C: 160%
Second compound 10 µM, first compound 0.001 µM
  viability, T/C: 176%
Second compound 10 µM, first compound 0.00316 µM
  viability, T/C: 147%
Second compound 10 µM, first compound 0.01 µM
  viability, T/C: 167%
Second compound 10 µM, first compound 0.0316 µM
  viability, T/C: 169%
Second compound 10 µM, first compound 0.1 µM
  viability, T/C: 139%

From PubChem BioAssay AID1963435 (Molecular Pharmacology Branch, DTP, NCI, 2024)
